The term IC50 denotes the concentration needed to halve the response being measured. Read a low IC50 as higher potency.

The target of assay [1] is T1, BTK (Homo sapiens (Human), UniProt Q06187). The experiment in a line: In Vitro BTK Kinase Assay: BTK-POLYGAT-LS ASSAY. It counts as biochemical. The following applies: fluorescein-labeled polyGAT peptide 100 nM, BTK enzyme 0.25 nM, 30 minutes, TRF. The procedure:
In Vitro BTK Kinase Assay: BTK-POLYGAT-LS ASSAY
The purpose of the BTK in vitro assay is to determine compound potency against BTK through the measurement of IC50. […] For a typical assay, a […] aliquot of a ATP/peptide master mix (final concentration; ATP […], polyGAT 100 nM) in kinase buffer (10 mM Tris-HCl pH 7.5, 10 mM MgCl2, 200 μM Na3PO4, 5 mM DTT, 0.01% Triton X-100, and 0.2 mg/ml casein) is added to each well. […] The assay is incubated for 30 minutes before being stopped with 28 μL of a 50 mM EDTA solution. […] The plate is covered and incubated for 45 minutes at room temperature. Time resolved fluorescence (TRF) on Molecular Devices M5 (332 nm excitation; 488 nm emission; 518 nm fluorescein emission) is measured.

The target of assay [2] is T1, BTK. The experiment in a line: In Vitro PD Assay in Human Whole Blood (pBTK assay). The following applies: human heparinized whole blood, 37° C. for 30 min, total BTK capture and phosphotyrosine detection (ECL). Format: cell-based. The procedure:
In Vitro PD Assay in Human Whole Blood
Human heparinized venous blood was purchased from Bioreclamation, Inc. or SeraCare Life Sciences and shipped overnight. Whole blood was aliquoted into 96-well plate and “spiked” with serial dilutions of test compound in DMSO or with DMSO without drug. The final concentration of DMSO in all wells was 0.1%. The plate was incubated at 37° C. for 30 min. Lysis buffer containing protease and phosphatase inhibitors was added to the drug-containing samples and one of the DMSO-only samples (+PPi, high control), while lysis buffer containing protease inhibitors was added to the other DMSO-only samples (−PPi, low control). All of the lysed whole blood samples were subjected to the total BTK capture and phosphotyrosine detection method described in US20160311802, incorporated herein by reference.

T1 sequence (Q06187 whole entry): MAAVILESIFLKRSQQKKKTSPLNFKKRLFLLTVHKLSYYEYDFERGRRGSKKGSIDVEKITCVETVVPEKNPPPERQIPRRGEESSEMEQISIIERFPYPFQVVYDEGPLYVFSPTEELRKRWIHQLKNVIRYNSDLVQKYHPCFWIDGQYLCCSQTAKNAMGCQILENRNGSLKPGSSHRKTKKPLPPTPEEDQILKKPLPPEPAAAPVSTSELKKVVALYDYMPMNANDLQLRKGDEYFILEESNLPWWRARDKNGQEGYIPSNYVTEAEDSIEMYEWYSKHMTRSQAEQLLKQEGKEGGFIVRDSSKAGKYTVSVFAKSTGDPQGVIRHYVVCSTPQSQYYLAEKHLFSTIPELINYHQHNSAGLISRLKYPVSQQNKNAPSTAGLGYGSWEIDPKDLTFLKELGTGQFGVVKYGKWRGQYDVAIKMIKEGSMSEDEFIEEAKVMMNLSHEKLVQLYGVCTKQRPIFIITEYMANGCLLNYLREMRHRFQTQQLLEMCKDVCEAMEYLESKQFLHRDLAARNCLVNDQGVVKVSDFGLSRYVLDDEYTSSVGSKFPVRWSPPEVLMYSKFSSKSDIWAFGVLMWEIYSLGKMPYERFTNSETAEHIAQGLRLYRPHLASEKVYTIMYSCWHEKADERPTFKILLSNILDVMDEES

With `Cc1c([C@@H](C)NC(=O)c2cc(C(C)(C)C)on2)ccc(-c2ncnc(Nc3cnn(C)c3)n2)c1F` [Compound 76, (R)-5-(tert-butyl)-N-(1-(3-fluoro-2-methyl-4-(4-((1-methyl-1H-pyrazol-4-yl)amino)-1,3,5-triazin-2-yl)phenyl)ethyl)isoxazole-3-carboxamide], the IC50 against BTK [1] was under 1 nM; at BTK [2], 100 to 500 nM.

Consider `Cc1cc(-c2ncnc(Nc3cnn(C)c3)n2)ccc1CNC(=O)c1nc(C2(CF)CC2)no1` [Compound 48, 3-(1-(fluoromethyl)cyclopropyl)-N-(2-methyl-4-(4-((1-methyl-1H-pyrazol-4-yl)amino)-1,3,5-triazin-2-yl)benzyl)-1,2,4-oxadiazole-5-carboxamide], for which the IC50 against BTK [1] is under 1 nM; on BTK [2], 100 to 500 nM.

As to `Cc1cc(-c2ncnc(Nc3cnn(C)c3)n2)ccc1CNC(=O)c1cnc(C(C)(C)C)o1` [Compound 99, 2-(tert-butyl)-N-(2-methyl-4-(4-((1-methyl-1H-pyrazol-4-yl)amino)-1,3,5-triazin-2-yl)benzyl)oxazole-5-carboxamide], the concentration for half-maximal inhibition (IC50) against BTK [1] is under 1 nM; against BTK [2] it was 500 to 10000 nM.

Consider `Cc1c(CNC(=O)c2noc(C(C)(C)C)n2)ccc(-c2ncnc(Nc3ccn(C)n3)n2)c1F` [Compound 9, 5-(tert-butyl)-N-(3-fluoro-2-methyl-4-(4-((1-methyl-1H-pyrazol-3-yl)amino)-1,3,5-triazin-2-yl)benzyl)-1,2,4-oxadiazole-3-carboxamide], for which the half-maximal inhibitory concentration (IC50) is under 1 nM on BTK [1] and 100 to 500 nM at BTK [2].

Turning to `Cn1ccc(Nc2ncnc(-c3ccc4c(c3F)CCCC[C@H]4NC(=O)c3nc(C(C)(C)C)no3)n2)n1` [Compound 89, (R)-3-(tert-butyl)-N-(1-fluoro-2-(4-((1-methyl-1H-pyrazol-3-yl)amino)-1,3,5-triazin-2-yl)-6,7,8,9-tetrahydro-5H-benzo[7]annulen-5-yl)-1,2,4-oxadiazole-5-carboxamide], the concentration for half-maximal inhibition (IC50) against BTK [1] was under 1 nM; on BTK [2], under 100 nM.

Take `Cn1cc(Nc2ncnc(-c3cc4c(cc3F)[C@H](NC(=O)c3nc(C(C)(C)C)no3)CCCC4)n2)cn1` [Compound 87, (R)-3-(tert-butyl)-N-(3-fluoro-2-(4-((1-methyl-1H-pyrazol-4-yl)amino)-1,3,5-triazin-2-yl)-6,7,8,9-tetrahydro-5H-benzo[7]annulen-5-yl)-1,2,4-oxadiazole-5-carboxamide]: the IC50 is under 1 nM on BTK [1] and under 100 nM against BTK [2].

Consider `Cc1cc(-c2ncnc(Nc3cnn(C)c3)n2)c(F)cc1CNC(=O)c1noc(C2(CF)CC2)n1` [Compound 51, N-(5-fluoro-2-methyl-4-(4-((1-methyl-1H-pyrazol-4-yl)amino)-1,3,5-triazin-2-yl)benzyl)-5-(1-(fluoromethyl)cyclopropyl)-1,2,4-oxadiazole-3-carboxamide], for which the values for the half-maximal inhibitory concentration (IC50) at BTK [1] and at BTK [2] were under 1 nM and 100 to 500 nM, respectively.

On to `Cn1cc(Nc2ncnc(-c3ccc(CNC(=O)c4nc(C(C)(C)C)no4)c(Cl)c3F)n2)cn1` [Compound 29, 3-(tert-butyl)-N-(2-chloro-3-fluoro-4-(4-((1-methyl-1H-pyrazol-4-yl)amino)-1,3,5-triazin-2-yl)benzyl)-1,2,4-oxadiazole-5-carboxamide], for which the IC50 is under 1 nM on BTK [1] and under 100 nM against BTK [2].

With `Cn1ccc(Nc2ncnc(-c3ccc(CNC(=O)c4nc(C(C)(C)C)no4)c(CC(F)F)c3)n2)n1` [Compound 68, 3-(tert-butyl)-N-(2-(2,2-difluoroethyl)-4-(4-((1-methyl-1H-pyrazol-3-yl)amino)-1,3,5-triazin-2-yl)benzyl)-1,2,4-oxadiazole-5-carboxamide], the IC50 is 1 to 10 nM on BTK [1] and 500 to 10000 nM on BTK [2].

Regarding `Cn1ccc(Nc2ncnc(-c3ccc4c(c3F)CCCC[C@H]4NC(=O)c3coc(C(C)(C)C)n3)n2)n1` [Compound 112, (R)-2-(tert-butyl)-N-(1-fluoro-2-(4-((1-methyl-1H-pyrazol-3-yl)amino)-1,3,5-triazin-2-yl)-6,7,8,9-tetrahydro-5H-benzo[7]annulen-5-yl)oxazole-4-carboxamide], the half-maximal inhibitory concentration (IC50) was under 1 nM on BTK [1] and 500 to 10000 nM against BTK [2].

For the compound `Cc1c(CNC(=O)c2cn(C(C)(C)C)nn2)ccc(-c2ncnc(Nc3cnn(C)c3)n2)c1F` [Compound 105, 1-(tert-butyl)-N-(3-fluoro-2-methyl-4-(4-((1-methyl-1H-pyrazol-4-yl)amino)-1,3,5-triazin-2-yl)benzyl)-1H-1,2,3-triazole-4-carboxamide], the figures for the half-maximal inhibitory concentration (IC50) against BTK [1] and against BTK [2] were under 1 nM and 100 to 500 nM, respectively.

With `Cc1c(CNC(=O)c2ccn(C(C)(C)C)n2)ccc(-c2ncnc(Nc3cnn(C)c3)n2)c1F` [Compound 106, 1-(tert-butyl)-N-(3-fluoro-2-methyl-4-(4-((1-methyl-1H-pyrazol-4-yl)amino)-1,3,5-triazin-2-yl)benzyl)-1H-pyrazole-3-carboxamide], the half-inhibitory concentration (IC50) was under 1 nM against BTK [1] and 500 to 10000 nM against BTK [2].

As to `Cc1cc(-c2ncnc(Nc3ccn(C)n3)n2)ccc1CNC(=O)c1cc(C(C)(C)C)on1` [Compound 42, 5-(tert-butyl)-N-(2-methyl-4-(4-((1-methyl-1H-pyrazol-3-yl)amino)-1,3,5-triazin-2-yl)benzyl)isoxazole-3-carboxamide], the 50% inhibitory concentration (IC50) was 1 to 10 nM against BTK [1] and 500 to 10000 nM on BTK [2].

For the compound `Cc1cc(-c2ncnc(Nc3ccn(C)n3)n2)ccc1CNC(=O)c1nc(C(C)(C)C)no1` [Compound 2, 3-(tert-butyl)-N-(2-methyl-4-(4-((1-methyl-1H-pyrazol-3-yl)amino)-1,3,5-triazin-2-yl)benzyl)-1,2,4-oxadiazole-5-carboxamide], the figures for the 50% inhibitory concentration (IC50) against BTK [1] and at BTK [2] were under 1 nM and 500 to 10000 nM, respectively.

In the case of `C[C@@H](NC(=O)c1noc(C(C)(C)C)n1)c1ccc(-c2ncnc(Nc3cnn(C)c3)n2)c(F)c1Cl` [Compound 69, (R)-5-(tert-butyl)-N-(1-(2-chloro-3-fluoro-4-(4-((1-methyl-1H-pyrazol-4-yl)amino)-1,3,5-triazin-2-yl)phenyl)ethyl)-1,2,4-oxadiazole-3-carboxamide], the half-inhibitory concentration (IC50) against BTK [1] is under 1 nM; against BTK [2], under 100 nM.

As to `Cc1c(CNC(=O)c2coc(C(C)(C)C)n2)ccc(-c2ncnc(Nc3ccn(C)n3)n2)c1F` [Compound 100, 2-(tert-butyl)-N-(3-fluoro-2-methyl-4-(4-((1-methyl-1H-pyrazol-3-yl)amino)-1,3,5-triazin-2-yl)benzyl)oxazole-4-carboxamide], the half-inhibitory concentration (IC50) against BTK [1] is under 1 nM; against BTK [2], 500 to 10000 nM.

Turning to `Cc1cc(-c2ncnc(Nc3cnn(C)c3)n2)ccc1CNC(=O)c1cnn(C(C)(C)C)c1` [Compound 37, 1-(tert-butyl)-N-(2-methyl-4-(4-((1-methyl-1H-pyrazol-4-yl)amino)-1,3,5-triazin-2-yl)benzyl)-1H-pyrazole-4-carboxamide], the half-maximal inhibitory concentration (IC50) at BTK [1] was under 1 nM; on BTK [2], 100 to 500 nM.

As to `Cc1cc(-c2ncnc(Nc3cnn(C)c3)n2)ccc1CNC(=O)c1nc(C(C)(C)C)co1` [Compound 114, 4-(tert-butyl)-N-(2-methyl-4-(4-((1-methyl-1H-pyrazol-4-yl)amino)-1,3,5-triazin-2-yl)benzyl)oxazole-2-carboxamide], the IC50 at BTK [1] is under 1 nM; on BTK [2] it was 500 to 10000 nM.
